Take `O=C1CCCCC1Oc1ccc(-c2c(-c3ccccc3)nn3ccccc23)nn1` (stereo not given): the melting point was 214 to 216 °C. As for `CCCSc1sc(C(N)=O)c2c1-c1[nH]ncc1CC2`, the figure is 163 to 164 °C.

Compound `CC(C)/[N+]([O-])=C/c1ccc(O)cc1O` returned a melting point of 155 to 157 °C. Consider `COc1ccc(-c2ccccc2)cc1N1CCN(C(=O)Nc2cc3ccccc3nc2OC)CC1`, for which the melting point lay within 122 to 123 °C. The compound `Cc1cc(Oc2c(F)cc(C(F)(F)F)cc2Cl)nn1C(N)=O` showed a melting point of 132 to 135 °C. As for `Cc1cccc(-c2nc3cccnn3c2-c2ccnc(NC(=O)c3ccc(Cl)cc3)c2)c1`, the figure is 211 to 212 °C; as for `CCCCc1c(C(=O)OCC)cc(O)c2ccccc12`, 117 to 120 °C. On to `O=c1c2c(Cl)cc(Cl)cc2n(Cc2ccccc2)c(=O)n1Cc1ccccc1F`, for which the melting point fell in the range of 126 to 130 °C.

`CC1=C(C(=O)O)N2C(=O)C(NC(=O)Cc3ccc(CCl)cc3)C2SC1` (stereo not given): the melting point was in the range of 145 to 146 °C. As for `COc1cc(OC)nc(NC(=O)NS(=O)(=O)c2cccc3sc(C)nc23)n1`, the figure is 187 to 194 °C. To `CCCOC1(C)CN(C(=O)Nc2ccc(C(F)(F)F)cc2)N=C1c1ccc(Cl)cc1` (stereo not given) belongs 135 to 138 °C; to `O=C(CSCc1c[nH]c2ccccc12)N1CC=C(c2cccc(F)c2)CC1`, 130 to 131 °C. As for `Nc1[nH]ncc1-c1nc(-c2ccco2)n[nH]1`, the figure is 175 to 176 °C. Turning to `O=S(=O)(c1ccc(Oc2ccccc2)cc1)N1CC1`, the melting point lay in the range of 136 to 138 °C.

With `COC(=O)Cc1nc(N)cc(OC)n1`, the melting point was in the range of 91 to 94 °C. As for `CN(C)C(=O)Nc1coc2ccccc2c1=O`, the figure is 148 °C. The compound `CCOC(=O)C1=C(C)N(C2CC2)C(C)=C(C(=O)OC)C1c1ccc(C(F)(F)F)cc1` (stereo not given) showed a melting point of 110 °C.

Compound `CC(=O)OC1CCC2C3CCC4CC(O[Si](C)(C)C(C)(C)C)CCC4C3CCC12C` (stereo not given) showed a melting point of 89 to 90 °C. `CN1CC2=C(n3cncc3C1)S(=O)C=C2` (stereo not given) returned a melting point of 160 to 163 °C. As for `NS(=O)(=O)c1ccc(-c2ccccc2-c2ccc(F)c(Cl)c2)cc1`, the figure is 192 to 193 °C; as for `CCCCCCCCOc1ccc(-c2nc(-c3ccccc3)c(-c3ccccc3)[nH]2)cc1`, 178 °C; as for `CCOP(=O)(CNC(=O)OC(C)(C)C)CNC(=O)OC(C)(C)C`, 118 to 120 °C. To `N#CC(C#N)=C1N(CCCN2CCCCC2)CCN1CCCN1CCCCC1` belongs 99 to 101 °C; to `Cc1ccc(S(=O)(=O)Oc2ccc(S(=O)(=O)C3=Cc4ccccc4C3)cc2)cc1`, 174 °C. As for `COC(=O)C1N=c2c(ccc3c2=CC=N3)O1` (stereo not given), the figure is 207 to 208 °C; as for `COC(=O)COCc1cc(C(C)(C)C)c(O)c(C(C)(C)C)c1`, 132 to 133 °C. The compound `Cc1cc(C#N)cc(C(=O)c2nc(OCc3ccccc3)nc(OCc3ccccc3)c2C(C)C)c1` came in with a melting point of 129 to 130 °C. With `Nc1nc(SCC2CC2)c2ncn(C3C=CC(CO)C3)c2n1` (stereo not given), the melting point was in the range of 125 to 127 °C. To `COc1cc(C2C3=C(COC3=O)Nc3ccc4cn[nH]c4c32)ccc1F` (stereo not given) belongs 307 to 309 °C; to `COC(=O)[C@H](CC(=O)O)NC(=O)c1cccc(NC(=O)c2ccc(C(=N)N)cc2)c1`, 248 to 249 °C. On to `O=C1CCC(N2Cc3c(NCc4cccc(Cl)c4)cccc3C2=O)C(=O)N1` (stereo not given), for which the melting point fell in the range of 253 to 255 °C. To `COc1ccc(Br)cc1OC(=O)c1ccccc1` belongs 73 to 75 °C; to `CC(C)(C)OC(=O)N1CCC(OCc2ccccc2)C1CC(=O)Cn1cnc2cccnc2c1=O` (stereo not given), 229 °C.

Consider `COC(=O)C(NCc1cn(Cc2ccccc2)c2ccccc12)c1ccccc1` (racemic), for which the melting point lay in the range of 72 to 75 °C. To `Oc1cnccc1CCCOc1cccnc1Oc1cccc(Br)c1` belongs 116 to 118 °C.

For the origin of these results see a melting point compilation (Tetko et al.; mined from patent text by program, amines drawn as free bases though some values may be those of a salt).
